Data taken from patent publication US20240294495A1, “COMPOUNDS THAT MEDIATE PROTEIN DEGRADATION AND METHODS OF USE THEREOF” (Monte Rosa Therapeutics, Inc., priority 2021, published 2024).

Assays:
CRBN-DDB1 = CRBN-DDB1 (Homo sapiens, UniProt Q96SW2); test: Compound binding to CRBN by HTRF assay; settings: CRBN-DDB1 2.5 nM, Cy5-Thalidomide 100 nM probe, 30 min incubation; read-out: HTRF Class (Cereblon binding, HTRF IC50)
Description: Compound activity was monitored in a Homogenous Time-Resolved Fluorescence (HTRF) assay using 1-[5-({2-[2-(2-{[2-(2,6-dioxopiperidin-3-yl)-1,3-dioxo-2,3-dihydro-1H-isoindol-4-yl]oxy}acetamido)ethoxy]ethyl}carbamoyl)pentyl]-3,3-dimethyl-2-[(1E,3E)-5-[(2E)-1,3,3-trimethyl-5-sulfo-2,3-dihydro-1H-indol-2-ylidene]penta-1,3-dien-1-yl]-3H-indol-1-ium-5-sulfonate as a fluorescent probe. Biochemical assays were conducted in Greiner white 384 well HiBase plates (Cat. No 784075-25) in 10 μL total volume. A one pot detection solution of CRBN-DDB1 (2.5 nM), Anti-His Terbium Cryptate Gold (1×, PerkinElmer Cat. #: 61HI2TLB), and Cy5-Thalidomide (100 nM, Tenova Cat.: T52461) was prepared in 20 mM HEPES, 20 mM NaCl, 0.2 mM TCEP, 0.2 mM EDTA, and 0.005% Tween20 was dispensed to each assay plate. Compounds were stored in dry, ambient temperatures at 10 mM. A 10-point, 1:3 dilution series was prepared from 10 mM stock concentrations in Echo-compatible LDV plates. 10 nL of each compound dilution series was dispensed into assays wells using an Echo 650 (Labcyte inc. USA). 10 nL of 10 mM Lenalidomide was transferred into the active-control wells for the assay and 10 nL of DMSO was transferred into the neutral-control wells. The assay was then allowed to incubate for 30 min at ambient temperature after transferring compound. Plate measurements were taken on a Pherastar FSX (BMG Labtech, Germany) using the HTRF Red filter (Ex. 337 nm, em1: 620 nm, em2: 665 nm) (Flashes: 50, Integration time: 60-400 us, Z-height: 10 mm, Ratio-multiplier: 10,000). The HTRF signal was then subsequently normalized to the neutral and active controls. Analysis and IC50 values were derived using KNIME analytics (KNIME Zurich) transformation and fitting within Collaborative Drug Discovery (Collaborative Drug Discovery USA). Ki was derived from the geometric mean of the IC50 values using the Cheng-Prustoff transformation.
(§1) In Table 2, each compound is assigned a class (HTRF class) indicating the ability for Cereblon binding by means of their HTRF IC50 values according to Example 3: A, B or C. According to the code, A represents an IC50 value of <100 nM, B represents an IC50 value>100 nM and <1000 nM, C represents an IC50 value>1000 nM. IF Class assigns each compound a code indicating the ability for GSPT1 degradation: A, B or C. According to the code, A represents a DC50 value of <30 nM, B represents a DC50 value>30 nM and <300 nM and C represents a DC50 value of >300 nM.

GSPT1 = molecular target: T1, GSPT1 (Homo sapiens, UniProt P15170+Q96SW2); test: Immunofluorescence assay for GSPT1 degradation in CAL-51 cells; assay type: cell-based; settings: 6 h treatment, read-out: IF Class (GSPT1 degradation, DC50)
T1 construct: CAL-51 cells were purchased from DSMZ (cat. Number ACC302); endogenous in cells; host or cells: CAL-51 (DSMZ ACC302)
Description: The representative compounds were tested in an immunofluorescence assay for their activity to degrade GSPT1. CAL-51 cells were purchased from DSMZ (cat. Number ACC302), sub-cultured in 90% Dulbecco's MEM (4.5 g/L glucose, Gibco 11965)+10% heat inactivated FBS (BioConcept, 2-01F136I) and incubated at 37° C., 5% CO2. For the assay imaging microtiter plate Cell Carrier 96 Ultra (Perkin Elmer 6055302) were pre-coated with Fibronectin (Sigma F085, 30 μl at 0.2 μg/mL) in PBS (100 μL, Gibco 14190) for 45 min at room temperature, rinsed with PBS and CAL-51 cells (30K cells/well) were plated and let to adhere overnight. Cells were treated with compounds typically using a serial dilution ranging from 30 μM to 0.1 nM for 6 h. Compounds were stored at 10 mM DMSO stocks. Vehicle (DMSO), positive (CC-885, 10 μM) and rescue controls (positive control plus 0.2 μM bortezomib) were also included at this stage. Cells were subsequently rinsed with PBS and fixed in 10% Formalin solution (50 μl, Sigma HT5011)) for 20 min at room temperature. Following three consecutive PBS washes (100 μL), cells were permeabilized in 0.1% Triton X-100 in PBS (Sigma 93443, 50 μl) for 15 min at room temperature. Following three further PBS washes, 50 μl blocking buffer (1% BSA, Sigma A4503, in PBS) was added for 45 min for signal-to noise reduction. Primary antibody (human GSPT1, Sigma HPA052488) was diluted in blocking buffer (dil.1/300, 35 μL/well) and incubated with the cells overnight at 4° C. After three PBS washes, Alexa-fluor 488 coupled secondary antibodies (Invitrogen, A32731, dil.1/1000), Alexa-fluor 647-Phalloidin (Invitrogen, A22287, dil.1/200) and DAPI (Thermo, #62248, dil.1/1000) were diluted in blocking buffer and incubated with the samples for 2 h at room temperature. After three final PBS washes, samples were conserved in 100 μL PBS in the dark, until measurement. Image acquisition was performed on the Operetta High-Content Imager (Perkin-Elmer). Fluorescence intensity of […] (GSPT1), Alexa-Fluor 647 (Actin) and DAPI (Nucleus) were measured. For the determination of GSPT1 DC50 values, a custom algorithm implemented in the PerkinElmer image analysis software Harmony-Acapella® was developed. After user-defined setting of adjustment parameters, the analysis was run identically without human intervention for all image fields. DAPI staining of the nuclei was used to determine the location of cells using standard nuclei detection modules. Segmentation artifacts were removed by threshold-based filters for area, roundness and intensity. The outline of the cells was determined analogously from the sum of the normalized, smoothed DAPI and Actin channel, starting from each nucleus. The Alexa-Fluor 488 (GSPT1) signal intensity in each cell was finally measured, in order to obtain a Mean intensity per cell. GSPT1 degradation (DC50) was calculated after normalization to controls and data import in CDD vault Database, using non-linear regression.
as §1

CRBN-DDB1, sequence (Q96SW2 whole entry): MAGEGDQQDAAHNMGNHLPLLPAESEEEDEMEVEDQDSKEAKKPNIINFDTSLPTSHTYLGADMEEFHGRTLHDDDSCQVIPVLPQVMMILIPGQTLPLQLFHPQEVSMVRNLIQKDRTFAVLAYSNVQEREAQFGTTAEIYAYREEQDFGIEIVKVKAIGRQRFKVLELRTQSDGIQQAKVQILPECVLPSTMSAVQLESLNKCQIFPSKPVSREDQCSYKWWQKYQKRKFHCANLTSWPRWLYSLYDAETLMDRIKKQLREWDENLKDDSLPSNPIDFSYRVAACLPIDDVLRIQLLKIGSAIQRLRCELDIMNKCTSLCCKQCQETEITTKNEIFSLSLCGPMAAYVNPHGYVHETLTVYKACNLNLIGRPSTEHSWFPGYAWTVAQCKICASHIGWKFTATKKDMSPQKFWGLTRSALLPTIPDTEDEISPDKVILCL
CRBN-DDB1, sequence (Q16531 whole entry partner): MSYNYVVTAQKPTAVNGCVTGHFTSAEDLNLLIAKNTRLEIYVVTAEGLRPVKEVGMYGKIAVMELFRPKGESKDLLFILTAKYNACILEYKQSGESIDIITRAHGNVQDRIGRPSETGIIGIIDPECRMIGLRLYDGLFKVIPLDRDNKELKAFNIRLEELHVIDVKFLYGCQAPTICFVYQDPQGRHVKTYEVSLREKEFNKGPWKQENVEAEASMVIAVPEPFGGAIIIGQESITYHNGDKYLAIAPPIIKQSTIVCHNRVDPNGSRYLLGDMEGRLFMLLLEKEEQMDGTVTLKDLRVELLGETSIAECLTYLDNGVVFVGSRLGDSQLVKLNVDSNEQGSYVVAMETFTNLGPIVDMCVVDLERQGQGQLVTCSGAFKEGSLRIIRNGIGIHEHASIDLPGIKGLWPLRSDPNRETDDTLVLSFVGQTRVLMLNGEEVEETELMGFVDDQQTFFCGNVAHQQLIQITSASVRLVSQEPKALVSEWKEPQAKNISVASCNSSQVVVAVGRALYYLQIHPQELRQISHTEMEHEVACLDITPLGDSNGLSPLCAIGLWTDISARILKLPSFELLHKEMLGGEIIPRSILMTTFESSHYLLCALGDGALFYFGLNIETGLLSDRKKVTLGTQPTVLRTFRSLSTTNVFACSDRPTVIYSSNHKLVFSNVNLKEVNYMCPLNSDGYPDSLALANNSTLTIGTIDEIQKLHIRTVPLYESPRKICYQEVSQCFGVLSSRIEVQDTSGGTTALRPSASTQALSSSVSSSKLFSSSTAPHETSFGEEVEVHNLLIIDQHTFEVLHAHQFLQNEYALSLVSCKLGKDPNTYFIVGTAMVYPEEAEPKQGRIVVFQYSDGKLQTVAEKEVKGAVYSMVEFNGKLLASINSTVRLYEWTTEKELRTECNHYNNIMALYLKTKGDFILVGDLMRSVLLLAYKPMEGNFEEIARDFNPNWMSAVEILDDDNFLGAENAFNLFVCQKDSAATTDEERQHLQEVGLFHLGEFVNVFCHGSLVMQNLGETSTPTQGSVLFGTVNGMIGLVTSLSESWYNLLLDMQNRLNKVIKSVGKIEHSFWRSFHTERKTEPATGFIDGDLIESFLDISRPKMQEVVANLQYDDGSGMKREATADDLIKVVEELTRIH
T1 sequence (P15170 whole entry): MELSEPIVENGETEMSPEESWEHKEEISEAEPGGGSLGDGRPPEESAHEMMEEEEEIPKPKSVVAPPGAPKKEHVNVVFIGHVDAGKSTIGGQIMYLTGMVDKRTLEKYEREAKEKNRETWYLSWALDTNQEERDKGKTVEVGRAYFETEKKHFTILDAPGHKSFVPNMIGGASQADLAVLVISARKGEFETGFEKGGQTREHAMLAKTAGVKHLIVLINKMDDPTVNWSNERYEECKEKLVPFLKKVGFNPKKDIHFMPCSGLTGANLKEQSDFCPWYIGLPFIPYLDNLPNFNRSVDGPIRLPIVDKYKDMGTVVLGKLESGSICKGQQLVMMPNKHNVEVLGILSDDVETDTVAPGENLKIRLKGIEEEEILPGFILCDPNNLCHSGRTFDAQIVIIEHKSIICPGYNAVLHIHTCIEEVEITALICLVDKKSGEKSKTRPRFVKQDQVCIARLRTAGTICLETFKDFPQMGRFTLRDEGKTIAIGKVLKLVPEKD
T1 sequence (Q96SW2 whole entry): as the sequence (Q96SW2 whole entry) above
T1 sequence (Q16531 2-1140 partner limits assumed): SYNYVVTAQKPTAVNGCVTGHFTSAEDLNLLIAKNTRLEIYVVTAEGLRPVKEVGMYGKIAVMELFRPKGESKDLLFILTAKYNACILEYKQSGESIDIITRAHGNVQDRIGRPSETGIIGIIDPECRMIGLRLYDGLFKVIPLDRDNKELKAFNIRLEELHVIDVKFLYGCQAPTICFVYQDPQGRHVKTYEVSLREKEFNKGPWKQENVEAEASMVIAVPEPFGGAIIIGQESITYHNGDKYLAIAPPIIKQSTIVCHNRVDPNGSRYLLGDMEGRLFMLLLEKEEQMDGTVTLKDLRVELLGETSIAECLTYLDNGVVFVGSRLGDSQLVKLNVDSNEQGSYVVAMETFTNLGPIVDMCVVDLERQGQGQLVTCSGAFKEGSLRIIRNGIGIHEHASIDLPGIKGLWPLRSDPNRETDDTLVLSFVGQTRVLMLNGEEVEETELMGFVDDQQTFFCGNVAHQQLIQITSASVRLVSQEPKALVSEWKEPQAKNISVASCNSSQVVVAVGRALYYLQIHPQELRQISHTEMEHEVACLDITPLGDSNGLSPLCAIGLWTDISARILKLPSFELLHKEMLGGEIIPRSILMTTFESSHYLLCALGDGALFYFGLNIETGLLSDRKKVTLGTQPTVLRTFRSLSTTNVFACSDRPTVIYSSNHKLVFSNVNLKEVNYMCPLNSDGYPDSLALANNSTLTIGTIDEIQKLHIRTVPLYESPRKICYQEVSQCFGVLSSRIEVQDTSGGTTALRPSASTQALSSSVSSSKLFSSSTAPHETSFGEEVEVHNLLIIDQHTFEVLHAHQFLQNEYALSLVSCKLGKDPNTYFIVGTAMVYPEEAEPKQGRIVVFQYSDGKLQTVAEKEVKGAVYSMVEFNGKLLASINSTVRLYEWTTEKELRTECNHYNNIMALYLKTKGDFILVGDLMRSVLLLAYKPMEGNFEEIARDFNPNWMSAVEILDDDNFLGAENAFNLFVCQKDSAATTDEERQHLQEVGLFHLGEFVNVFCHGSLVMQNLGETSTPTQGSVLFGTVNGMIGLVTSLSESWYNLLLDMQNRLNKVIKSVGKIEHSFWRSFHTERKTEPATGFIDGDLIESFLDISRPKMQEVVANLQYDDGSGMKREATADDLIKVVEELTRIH

Row | Structure (SMILES) | IC50 (CRBN-DDB1) | DC50 (GSPT1)
1 | O=C1CCC(c2c(F)cc(N3CC(NC(=O)Cc4ccc5c(c4)OCC5)C3)cc2F)C(=O)N1 (stereo not drawn) [Compound 24, 2-(2,3-dihydrobenzofuran-6-yl)-N-(1-(4-(2,6-dioxopiperidin-3-yl)-3,5-difluorophenyl)azetidin-3-yl)acetamide] | 100 to 1000 nM | > 300 nM
2 | O=C1CCC(c2c(F)cc(N3CC(NC(=O)Cc4cc(F)cc(OC(F)F)c4)C3)cc2F)C(=O)N1 (stereo not drawn) [Compound 26, 2-(3-(difluoromethoxy)-5-fluorophenyl)-N-(1-(4-(2,6-dioxopiperidin-3-yl)-3,5-difluorophenyl)azetidin-3-yl)acetamide] | 100 to 1000 nM | > 300 nM
3 | O=C1CCC(c2c(F)cc(N3CC(NC(=O)Cc4ccc(Cl)cc4F)C3)cc2F)C(=O)N1 (stereo not drawn) [Compound 31, 2-(4-chloro-2-fluorophenyl)-N-(1-(4-(2,6-dioxopiperidin-3-yl)-3,5-difluorophenyl)azetidin-3-yl)acetamide] | 100 to 1000 nM | 30 to 300 nM
4 | O=C1CCC(c2c(F)cc(N3CC(NC(=O)Cc4cccc(Cl)c4)C3)cc2F)C(=O)N1 (stereo not drawn) [Compound 32, 2-(3-chlorophenyl)-N-(1-(4-(2,6-dioxo-3-piperidyl)-3,5-difluoro-phenyl)azetidin-3-yl)acetamide] | 100 to 1000 nM | 30 to 300 nM
5 | Cc1cc(CC(=O)NC2CN(c3ccc(C4CCC(=O)NC4=O)c(Cl)c3)C2)ccc1Cl (stereo not drawn) [Compound 33, 2-(4-chloro-3-methylphenyl)-N-(1-(3-chloro-4-(2,6-dioxopiperidin-3-yl)phenyl)azetidin-3-yl)acetamide] | 100 to 1000 nM | 30 to 300 nM
6 | O=C1CCC(c2c(F)cc(N3CC(NC(=O)Cc4ccc(Cl)cc4)C3)cc2F)C(=O)N1 (stereo not drawn) [Compound 36, 2-(4-chlorophenyl)-N-(1-(4-(2,6-dioxopiperidin-3-yl)-3,5-difluorophenyl)azetidin-3-yl)acetamide] | 100 to 1000 nM | > 300 nM
7 | Cc1ccc(NC(=O)CC2CN(c3cc(F)c(C4CCC(=O)NC4=O)c(F)c3)C2)cc1Cl (stereo not drawn) [Compound 40, N-(3-chloro-4-methylphenyl)-2-(1-(4-(2,6-dioxopiperidin-3-yl)-3,5-difluorophenyl)azetidin-3-yl)acetamide] | > 1000 nM | < 30 nM
8 | Cc1cc(CC(=O)NC2CN(c3cc(F)c(C4CCC(=O)NC4=O)c(F)c3)C2)cc(C)n1 (stereo not drawn) [Compound 49, 2-(2,6-dimethylpyridin-4-yl)-N-(1-(4-(2,6-dioxopiperidin-3-yl)-3,5-difluorophenyl)azetidin-3-yl)acetamide] | 100 to 1000 nM | > 300 nM
9 | Cc1cc(C)cc(C(F)(F)C(=O)NC2CN(c3cc(F)c(C4CCC(=O)NC4=O)c(F)c3)C2)c1 (stereo not drawn) [Compound 50, 2-(3,5-dimethylphenyl)-N-(1-(4-(2,6-dioxopiperidin-3-yl)-3,5-difluorophenyl)azetidin-3-yl)-2,2-difluoroacetamide] | 100 to 1000 nM | > 300 nM
10 | Cc1cc(C)nc(CC(=O)NC2CN(c3cc(F)c(C4CCC(=O)NC4=O)c(F)c3)C2)c1 (stereo not drawn) [Compound 51, 2-(4,6-dimethylpyridin-2-yl)-N-(1-(4-(2,6-dioxopiperidin-3-yl)-3,5-difluorophenyl)azetidin-3-yl) acetamide] | 100 to 1000 nM | > 300 nM

More lines, now with the values ahead:

Row | IC50 (CRBN-DDB1) | DC50 (GSPT1) | Structure (SMILES)
11 | 100 to 1000 nM | > 300 nM | Cc1nc(CC(=O)NC2CN(c3cc(F)c(C4CCC(=O)NC4=O)c(F)c3)C2)ccc1Cl (stereo not drawn) [Compound 25, 2-(5-chloro-6-methylpyridin-2-yl)-N-(1-(4-(2,6-dioxopiperidin-3-yl)-3,5-difluorophenyl)azetidin-3-yl)acetamide]
12 | 100 to 1000 nM | 30 to 300 nM | COc1cc(Cl)ccc1CC(=O)NC1CN(c2cc(F)c(C3CCC(=O)NC3=O)c(F)c2)C1 (stereo not drawn) [Compound 27, 2-(4-chloro-2-methoxyphenyl)-N-(1-(4-(2,6-dioxopiperidin-3-yl)-3,5-difluorophenyl)azetidin-3-yl)acetamide]
13 | 100 to 1000 nM | 30 to 300 nM | O=C1CCC(c2c(F)cc(N3CC(NC(=O)Cc4cccc(OC(F)(F)F)c4)C3)cc2F)C(=O)N1 (stereo not drawn) [Compound 28, N-(1-(4-(2,6-dioxopiperidin-3-yl)-3,5-difluorophenyl)azetidin-3-yl)-2-(3-(trifluoromethoxy)phenyl) acetamide]
14 | 100 to 1000 nM | < 30 nM | Cc1cc(C)cc(CC(=O)NC2CN(c3cc(F)c(C4CCC(=O)NC4=O)c(F)c3)C2)c1 (stereo not drawn) [Compound 29, 2-(3,5-dimethylphenyl)-N-(1-(4-(2,6-dioxopiperidin-3-yl)-3,5-difluorophenyl)azetidin-3-yl)acetamide]
15 | 100 to 1000 nM | 30 to 300 nM | Cc1cc(CC(=O)NC2CN(c3cc(F)c(C4CCC(=O)NC4=O)c(F)c3)C2)ccc1F (stereo not drawn) [Compound 30, N-(1-(4-(2,6-dioxopiperidin-3-yl)-3,5-difluorophenyl)azetidin-3-yl)-2-(4-fluoro-3-methylphenyl)acetamide]
16 | 100 to 1000 nM | > 300 nM | N#Cc1ccc(CC(=O)NC2CN(c3cc(F)c(C4CCC(=O)NC4=O)c(F)c3)C2)c(F)c1 (stereo not drawn) [Compound 47, 2-(4-cyano-2-fluorophenyl)-N-(1-(4-(2,6-dioxopiperidin-3-yl)-3,5-difluorophenyl)azetidin-3-yl)acetamide]
17 | < 100 nM | > 300 nM | N#Cc1ccc(CC(=O)NC2CN(c3cc(F)c(C4CCC(=O)NC4=O)c(F)c3)C2)cc1Cl (stereo not drawn) [Compound 48, 2-(3-chloro-4-cyanophenyl)-N-(1-(4-(2,6-dioxopiperidin-3-yl)-3,5-difluorophenyl)azetidin-3-yl)acetamide]
18 | 100 to 1000 nM | 30 to 300 nM | Cc1cc(Cl)ccc1CC(=O)NC1CN(c2cc(F)c(C3CCC(=O)NC3=O)c(F)c2)C1 (stereo not drawn) [Compound 52, 2-(4-chloro-2-methylphenyl)-N-(1-(4-(2,6-dioxopiperidin-3-yl)-3,5-difluorophenyl)azetidin-3-yl)acetamide]
